Each structure is given as a SMILES string.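 Exposure lasted 48 hours, with cells grown in 96-well plates and compounds tested at five concentrations. GI50 is the concentration that inhibits growth by half. At the TGI there is no net growth.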

One assay has as its system RPMI-8226 leukemia. As to the kind of experiment: NCI-60 cell line screen, 48 h.
In the case of `CCOC(OC1=C(C#N)CCCC1)C(CC)[Se]c1ccccc1` (stereo not drawn), the TGI is 50.1 µM.
On the same count and under the same terms, then `C=C1C2Oc3ccccc3C1N(c1ccccc1)O2` (stereo not drawn), with > 100 µM; and `C=C1C(=O)C23C(O)C1CC[C@H]2C12CCCC(C)(COC(C)=O)[C@H]1[C@H](O)[C@]3(O)OC2` (stereo partly drawn), with 1.76 µM.
On the same count and under the same terms, under `C=CCNC(=O)N(CCC)CCCC(NC(C)=O)C(=O)NCc1ccccc1` (stereo not drawn) stands > 100 µM; under `CCOC(=O)C1(Cc2ccc3ccccc3c2)CCCCC(=O)N1` (stereo not drawn), 58.2 µM; under `Cc1ccccc1/C=C/C(=O)c1ccccc1`, 71.4 µM.
Same read-out and setting: under `COC(=O)C1C(=O)N(CCc2c[nH]c3ccccc23)C[C@@H]2CCC(=O)C[C@H]12` (stereo partly drawn) stands > 100 µM; under `C[C@]12C/C(=C/O)C(=O)C(O)=C1CC[C@@H]1C2CC[C@@]2(C)C1CC[C@@H]2O` (stereo partly drawn), 64.8 µM.
`Cc1ccc(C)c(N2C(=O)C(=O)C(c3nc4ccccc4s3)C(=Nc3cccc4c(=O)[nH][nH]c(=O)c34)C2=O)c1` (stereo not drawn): the TGI is > 100 µM.
Still for that read-out and setting: under `Cc1nc(-c2cccnc2)sc1C(=O)/C=C/c1cccc([N+](=O)[O-])c1` stands > 100 µM.

For the next assay, the system named is SF-268 CNS. As to the kind of experiment: NCI-60 cell line screen, 48 h.
Take `Cc1c2ccncc2c(C)c2c1[nH]c1ccc(O)c(OCC(F)(F)F)c12`: the TGI was found to be 24.1 µM.
The same measure, in the same setting: then `CC(C)(C)OC(=O)NC1CCCC1=O` (stereo not drawn), with > 100 µM; and `O=C1[C@H]2ON(c3ccccc3)C(c3ccco3)[C@H]2C(=O)N1c1ccc(Cc2ccc(N3C(=O)[C@@H]4ON(c5ccccc5)C(c5ccco5)[C@@H]4C3=O)cc2)cc1` (stereo partly drawn), with > 100 µM; and `Cc1cccc(C)c1N1C(=O)C(=O)C(c2nc3ccccc3s2)/C(=N/NC(=O)NN)C1=O` (stereo not drawn), with > 100 µM.
Same read-out and setting: then `CCCCCCC(C)CCCCCCCCCCC(=O)O` (stereo not drawn), with > 100 µM; and `CC(C)(C)c1ccc(OC2CCO2)cc1` (stereo not drawn), with 81.5 µM.
On the same count and under the same terms, under `CC1(O)CCn2c(=O)c3cc4ccccc4cc3c(=O)n2C1O` (stereo not drawn) stands > 100 µM.
On to `CC(C)[O-].CC(C)[O-].O=c1cccccc1[O-].O=c1cccccc1[O-].[Ti+4]`, for which the TGI is > 100 µM.
Consider `COc1cc(CNc2nc3ccc(C(F)(F)F)cc3nc2-c2ccccc2)cc(OC)c1OC`, for which the TGI is > 100 µM.
On the same count and under the same terms, under `COc1ccccc1NC(=O)/C(=C/c1ccccc1)C(C)=O` stands > 100 µM; under `CC(=O)n1c(=O)c2cc3c(=O)n(-c4cccc(C#N)c4)c(=O)c3cc2c1=O`, > 100 µM; under `O=C(CC1(O)C(=O)Nc2c(Cl)ccc(Cl)c21)c1ccc(Cl)cc1Cl` (stereo not drawn), 62.9 µM.
Take `CC1=NN(C(=O)c2ccncc2)C(=O)C1N=Nc1ccc(F)cc1` (stereo not drawn): the TGI was > 100 µM.
Still for that read-out and setting: under `COc1ccc(C2Oc3c(c(O)cc4c3[C@H](c3ccc(O)cc3O)[C@H](O)C(c3ccc(O)c(O)c3)O4)C[C@@H]2O)cc1O` (stereo partly drawn) stands > 100 µM; under `CCOC(OC1=C(C#N)CCCC1)C(CC)[Se]c1ccccc1` (stereo not drawn), 27.8 µM.
`C=C1C2Oc3ccccc3C1N(c1ccccc1)O2` (stereo not drawn): the TGI was > 100 µM.
Compound `C=C1C(=O)C23C(O)C1CC[C@H]2C12CCCC(C)(COC(C)=O)[C@H]1[C@H](O)[C@]3(O)OC2` (stereo partly drawn) gave a TGI of 6.95 µM.
On the same count and under the same terms, then `O=S1CSSC1`, with 58.4 µM.
On to `C=CCNC(=O)N(CCC)CCCC(NC(C)=O)C(=O)NCc1ccccc1` (stereo not drawn), for which the TGI is > 100 µM.
Regarding `CC(=O)[CH-]C(=O)c1ccccc1.CC(=O)[CH-]C(=O)c1ccccc1.CC1(C)OCC(C2OC3OC(C)(C)OC3C2[O-])O1.CC[O-].[Ti+4]` (stereo not drawn), the GI50 was 13.1 µM and the TGI amounted to 29 µM.
As to `CCOC(=O)C1(Cc2ccc3ccccc3c2)CCCCC(=O)N1` (stereo not drawn), the TGI is > 100 µM.
On the same count and under the same terms, then `Cc1ccccc1/C=C/C(=O)c1ccccc1`, with 30 µM.
Still for that read-out and setting: then `COC(=O)C1C(=O)N(CCc2c[nH]c3ccccc23)C[C@@H]2CCC(=O)C[C@H]12` (stereo partly drawn), with > 100 µM; and `C[C@]12C/C(=C/O)C(=O)C(O)=C1CC[C@@H]1C2CC[C@@]2(C)C1CC[C@@H]2O` (stereo partly drawn), with 54.1 µM; and `CC1(C)CC(=O)C(CC2C(=O)c3ccccc3C2=O)C(=O)C1`, with > 100 µM.
As for `Cc1ccc(C)c(N2C(=O)C(=O)C(c3nc4ccccc4s3)C(=Nc3cccc4c(=O)[nH][nH]c(=O)c34)C2=O)c1` (stereo not drawn), the TGI is > 100 µM.
Same read-out and setting: then `N#CC(C#N)=c1c2nsnc2c(=C(C#N)C#N)c2nsnc12`, with 4.26 µM; and `Cc1nc(-c2cccnc2)sc1C(=O)/C=C/c1cccc([N+](=O)[O-])c1`, with > 100 µM.

For the next assay, the system named is SF-295 CNS. As to the kind of experiment: NCI-60 cell line screen, 48 h.
`Cc1c2ccncc2c(C)c2c1[nH]c1ccc(O)c(OCC(F)(F)F)c12`: the TGI came to 14.8 µM.
With `CC(C)(C)OC(=O)NC1CCCC1=O` (stereo not drawn), the TGI is > 100 µM.
In the case of `Cc1c(C(=O)/C=C/c2ccccc2[N+](=O)[O-])[n+](=O)c2ccccc2n1[O-]`, the TGI came to 20.4 µM.
The same measure, in the same setting: under `O=C1[C@H]2ON(c3ccccc3)C(c3ccco3)[C@H]2C(=O)N1c1ccc(Cc2ccc(N3C(=O)[C@@H]4ON(c5ccccc5)C(c5ccco5)[C@@H]4C3=O)cc2)cc1` (stereo partly drawn) stands > 100 µM; under `Cc1cccc(C)c1N1C(=O)C(=O)C(c2nc3ccccc3s2)/C(=N/NC(=O)NN)C1=O` (stereo not drawn), > 100 µM; under `CCCCCCC(C)CCCCCCCCCCC(=O)O` (stereo not drawn), > 100 µM.
Still for that read-out and setting: under `CC(C)(C)c1ccc(OC2CCO2)cc1` (stereo not drawn) stands > 100 µM; under `CC1(O)CCn2c(=O)c3cc4ccccc4cc3c(=O)n2C1O` (stereo not drawn), > 100 µM; under `CC(C)[O-].CC(C)[O-].O=c1cccccc1[O-].O=c1cccccc1[O-].[Ti+4]`, > 100 µM.
Still for that read-out and setting: under `COc1cc(CNc2nc3ccc(C(F)(F)F)cc3nc2-c2ccccc2)cc(OC)c1OC` stands > 100 µM; under `COc1ccccc1NC(=O)/C(=C/c1ccccc1)C(C)=O`, 71 µM.
As for `CC(=O)n1c(=O)c2cc3c(=O)n(-c4cccc(C#N)c4)c(=O)c3cc2c1=O`, the TGI is > 100 µM.
Compound `O=C(CC1(O)C(=O)Nc2c(Cl)ccc(Cl)c21)c1ccc(Cl)cc1Cl` (stereo not drawn) returned a TGI of 41.6 µM.
Still for that read-out and setting: under `CC1=NN(C(=O)c2ccncc2)C(=O)C1N=Nc1ccc(F)cc1` (stereo not drawn) stands > 100 µM; under `COc1ccc(C2Oc3c(c(O)cc4c3[C@H](c3ccc(O)cc3O)[C@H](O)C(c3ccc(O)c(O)c3)O4)C[C@@H]2O)cc1O` (stereo partly drawn), > 100 µM.
`CCOC(OC1=C(C#N)CCCC1)C(CC)[Se]c1ccccc1` (stereo not drawn) displayed a TGI of 98.7 µM.
Same read-out and setting: then `C=C1C2Oc3ccccc3C1N(c1ccccc1)O2` (stereo not drawn), with 62.7 µM; and `C=C1C(=O)C23C(O)C1CC[C@H]2C12CCCC(C)(COC(C)=O)[C@H]1[C@H](O)[C@]3(O)OC2` (stereo partly drawn), with 2.41 µM.
As to `O=S1CSSC1`, the TGI was found to be 65.1 µM.
Still for that read-out and setting: under `C=CCNC(=O)N(CCC)CCCC(NC(C)=O)C(=O)NCc1ccccc1` (stereo not drawn) stands > 100 µM.
Turning to `CC(=O)[CH-]C(=O)c1ccccc1.CC(=O)[CH-]C(=O)c1ccccc1.CC1(C)OCC(C2OC3OC(C)(C)OC3C2[O-])O1.CC[O-].[Ti+4]` (stereo not drawn), the GI50 is 17.1 µM and the TGI was found to be 31.6 µM.
`CCOC(=O)C1(Cc2ccc3ccccc3c2)CCCCC(=O)N1` (stereo not drawn) returned a TGI of 35.2 µM.
On the same count and under the same terms, under `COC(=O)C1C(=O)N(CCc2c[nH]c3ccccc23)C[C@@H]2CCC(=O)C[C@H]12` (stereo partly drawn) stands > 100 µM.

The record behind these values is PubChem BioAssay (NCI).
